# Measurements as given in publication PMC10762035, “Molecular basis of human trace amine-associated receptor 1 activation” (Nature Communications, 2024).
# Changes are numbered by the printed parent chain. Values joined by “and” are separate entries in the source; they are usually repeats but may differ in a detail not shown here. Equal entries are not always repeated.
# What was measured:
# Type in all cases: cell-based
# hTA1 = target: T1, hTA1 (Homo sapiens, UniProt Q96RJ0); test: GloSensor cAMP accumulation assay, concentration response, wild-type hTA1 in transfected HEK293T cells;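 also: luminescence read after 30 min compound exposure at room temperature in cells preloaded with D-Luciferin, reflecting Gs-driven cAMP rise, efficacy scaled to the maximal β-PEA response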
# T1 construct: expressed in transfected cells; host or cells: HEK293T
# T1 sequence (Q96RJ0 1-339): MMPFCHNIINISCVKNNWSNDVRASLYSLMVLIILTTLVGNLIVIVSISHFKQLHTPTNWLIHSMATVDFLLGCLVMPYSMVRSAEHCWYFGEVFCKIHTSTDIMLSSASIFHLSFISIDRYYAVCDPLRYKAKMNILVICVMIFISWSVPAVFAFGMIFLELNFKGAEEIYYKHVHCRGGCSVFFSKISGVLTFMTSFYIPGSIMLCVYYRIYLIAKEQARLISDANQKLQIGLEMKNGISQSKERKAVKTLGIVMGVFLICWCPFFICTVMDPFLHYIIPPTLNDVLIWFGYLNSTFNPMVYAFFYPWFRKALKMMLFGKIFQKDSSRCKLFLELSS
# [1] = target: T2, β2AR-Nterm-hTA1-F112^3.41W (CryoEM Construct) (Homo sapiens, UniProt Q96RJ0, F112W); test: GloSensor cAMP accumulation assay, cryoEM construct;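 also: cells transiently co-transfected with the receptor construct and GloSensor cAMP biosensor, luminescence read after 30 min compound exposure at room temperature in the dark as cAMP accumulation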;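 as to Normalized Luminescence Counts (N=2): normalized to the maximum response of β-PEA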
# T2 construct: FLAG (N); 10xHis (N); TEV protease site (N); expressed in transfected cells; host or cells: HEK293T
# T2 sequence (Q96RJ0 with tags, fused parts or gaps F112W): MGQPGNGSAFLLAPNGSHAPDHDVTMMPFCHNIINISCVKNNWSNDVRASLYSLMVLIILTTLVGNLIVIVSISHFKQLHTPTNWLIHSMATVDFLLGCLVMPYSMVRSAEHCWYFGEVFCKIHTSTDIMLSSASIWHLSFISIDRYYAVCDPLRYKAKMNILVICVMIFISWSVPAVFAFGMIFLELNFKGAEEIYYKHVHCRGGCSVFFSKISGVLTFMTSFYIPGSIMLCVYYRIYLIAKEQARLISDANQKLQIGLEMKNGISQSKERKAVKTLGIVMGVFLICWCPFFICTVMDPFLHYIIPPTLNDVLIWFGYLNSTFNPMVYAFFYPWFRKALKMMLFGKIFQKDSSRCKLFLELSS
# hTA1 b2N = target: T3, hTA1 b2N (Homo sapiens, UniProt Q96RJ0); test: GloSensor cAMP accumulation assay, b2N construct; details: b2N, n=2
# T3 construct: read by me as the first 25 residues of β2AR (N); expressed in transfected cells; host or cells: HEK293T
# T3 sequence (Q96RJ0 with tags, fused parts or gaps): as the sequence (Q96RJ0 with tags, fused parts or gaps F112W) above, with W137F counted along it
# hTA1 C5S = target: T4, hTA1 C5S (Homo sapiens, UniProt Q96RJ0, C5S); test: GloSensor cAMP accumulation assay, C5S mutant; details: for C5S - Normalized Luminescence Counts (N=2): log[Compound], single wells
# T4 construct: expressed in transfected cells; host or cells: HEK293T
# T4 sequence (Q96RJ0 1-339 C5S): T1 sequence (Q96RJ0 1-339) with C5S
# hTA1 I290Y = target: T5, hTA1 I290Y (Homo sapiens, UniProt Q96RJ0, I290Y); test: GloSensor cAMP accumulation assay, I290Y mutant; details: for cAMP accumulation response, normalized (concentration-response source data, single replicate values): hTA1 I290Y (N=3), log[Compound];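 as to cAMP accumulation response, normalized (concentration-response source data, single replicate values): normalized to the maximum response of β-PEA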
# T5 construct: expressed in transfected cells; host or cells: HEK293T
# T5 sequence (Q96RJ0 1-339 I290Y): T1 sequence (Q96RJ0 1-339) with I290Y
# [2] = Cryo EM Construct minus WT average
# [3] = Cryo EM Construct, mean of each independent experiment (3 replicates)
smiles,measurement,setting,value
Cc1c(F)cccc1[C@H]1COC(N)=N1 [Ro5263397],"pEC50 values, Avg","hTA1; WT hTA1, average of the two experiments, Figure 2B source data",8.831
same,"pEC50 values, Mean","hTA1; WT hTA1, each line an independent experiment, 3 replicates, Figure 2B source data",8.992 and 8.671
same,"Emax values, Mean","hTA1; WT hTA1, β-PEA = 100, each line an independent experiment, 3 replicates",87.687 and 85.7197
same,"Emax values, Avg","hTA1; WT, average of the experiments, β-PEA = 100",86.7
same,"Emax values, Avg","hTA1; WT, average of the two experiments",86.7
same,"Emax values, Mean","hTA1; WT, mean of each independent experiment (3 replicates), β-PEA = 100",87.687 and 85.7197
same,"Emax values, Mean","hTA1; WT, single experiments (3 replicates each), β-PEA = 100",87.687 and 85.7197
same,pEC50 ± SEM,"hTA1; wt hTA1, HEK293T, n=3",8.83 ± 0.09
same,EC50,"hTA1; wt hTA1, HEK293T, n=3, read-out: EC50",1.47 nM and 1.48 nM
same,Emax,"hTA1; wt hTA1, relative to β-PEA",86.7%
same,"ΔEmax values (each mutant value - WT average), Mean",[1]; [2],19.0137 and 21.294
same,"ΔpEC50 values (each mutant value - WT average), Mean",[1]; [2],-0.1667 and 0.1313
same,"Emax values, Mean",[1]; [3],-0.1667 and 0.1313
same,"pEC50 values, Mean",[1]; [3],8.664 and 8.962
same,Normalized Luminescence Counts (N=2),"[1]; CryoEM Construct, log[Compound], M = -5, single replicates",130.633 and 139.904 and 147.826 and 114.773
same,Span ± SEM (Emax normalized to β-PEA),"[1]; CryoEM Construct, n=2",106.6 ± 2.69
same,pEC50 ± SEM,"[1]; CryoEM Construct, n=2",8.82 ± 0.06
same,EC50,"[1]; CryoEM Construct, n=2, read-out: EC50",1.5 nM
same,Span ± SEM (Emax normalized to β-PEA),hTA1 b2N,78.31 ± 9.88
same,pEC50 ± SEM,hTA1 b2N,9.18 ± 0.09
same,EC50,hTA1 b2N; read-out: EC50,0.66 nM
same,Span ± SEM (Emax normalized to β-PEA),"hTA1 C5S; C5S, n=2",85.5 ± 2.16
same,pEC50 ± SEM,"hTA1 C5S; C5S, n=2",8.41 ± 0.07
same,EC50,"hTA1 C5S; C5S, n=2, read-out: EC50",3.89 nM
same,"ΔpEC50 values (each mutant value - WT average), Mean",hTA1 C5S; hTA1 C5S minus WT average,-0.4275 and -0.4158
same,"pEC50 values, Mean","hTA1 C5S; hTA1 C5S, mean of 3 replicates, one line per independent experiment",8.404 and 8.415
same,"Emax values, Mean","hTA1 C5S; hTA1 C5S, β-PEA = 100, mean of 3 replicates, one line per independent experiment",87.6591 and 83.3363
same,C5S - Normalized Luminescence Counts (N=2),hTA1 C5S; M = -5,85.0708 and 100.74 and 87.5995 and 113.126 and 96.6929 and 89.5813
same,C5S - Normalized Luminescence Counts (N=2),hTA1 C5S; M = -5.522,97.1276 and 85.703 and 92.1378 and 95.6573 and 94.8978 and 70.801
same,C5S - Normalized Luminescence Counts (N=2),hTA1 C5S; M = -6,93.0635 and 85.8836 and 79.9907 and 67.4868 and 91.9288 and 67.763
same,C5S - Normalized Luminescence Counts (N=2),hTA1 C5S; M = -6.522,88.5027 and 85.5675 and 89.6542 and 93.5169 and 82.6077 and 78.2579
same,C5S - Normalized Luminescence Counts (N=2),hTA1 C5S; M = -7,87.2609 and 83.7612 and 87.2157 and 111.607 and 73.6318 and 82.4696
same,C5S - Normalized Luminescence Counts (N=2),hTA1 C5S; M = -7.522,71.4335 and 67.6629 and 81.3002 and 85.1624 and 76.2555 and 81.6411
same,C5S - Normalized Luminescence Counts (N=2),hTA1 C5S; M = -8,61.928 and 52.9645 and 61.8152 and 50.2945 and 70.0415 and 59.7537
same,C5S - Normalized Luminescence Counts (N=2),hTA1 C5S; M = -8.522,48.2456 and 39.1466 and 43.2332 and 39.9378 and 36.8998 and 46.1518
same,C5S - Normalized Luminescence Counts (N=2),hTA1 C5S; M = -9,23.0031 and 19.2551 and 16.9296 and 21.986 and 33.2404 and 18.948
same,C5S - Normalized Luminescence Counts (N=2),hTA1 C5S; M = -9.522,10.2012 and 7.989 and 6.476 and 12.3887 and 12.803 and 8.1079
same,Span ± SEM (Emax normalized to β-PEA),hTA1 I290Y; I290Y,61.58 ± 3.99
same,pEC50 ± SEM,hTA1 I290Y; I290Y,9.16 ± 0.18
same,EC50,"hTA1 I290Y; I290Y, read-out: EC50",0.69 nM and 0.7 nM
same,"Emax values, Mean","hTA1 I290Y; I290Y, single experiments (3 replicates each), β-PEA = 100",59.7265 and 69.2263 and 55.7889
same,"cAMP accumulation response, normalized (concentration-response source data, single replicate values)",hTA1 I290Y; M = -5,77.8381 and 104.308 and 85.2251 and 91.2333 and 75.1101 and 85.0039 and 68.1063 and 86.1539 and 148.193
same,"cAMP accumulation response, normalized (concentration-response source data, single replicate values)",hTA1 I290Y; M = -5.522,49.5212 and 78.7614 and 62.4485 and 78.7745 and 74.7437 and 50.1924 and 55.6986 and 43.2908 and 39.9069
same,"cAMP accumulation response, normalized (concentration-response source data, single replicate values)",hTA1 I290Y; M = -6,40.5953 and 87.0718 and 61.2173 and 64.117 and 63.3841 and 61.5519 and 45.5468 (2×) and 50.0587
same,"cAMP accumulation response, normalized (concentration-response source data, single replicate values)",hTA1 I290Y; M = -6.522,56.6004 and 53.5225 and 48.9057 and 84.6375 and 52.7574 and 75.4765 and 66.9783 and 45.5468 and 38.7789
same,"cAMP accumulation response, normalized (concentration-response source data, single replicate values)",hTA1 I290Y; M = -7,35.3628 and 69.2199 and 41.5187 and 56.0554 and 64.117 and 50.9252 and 46.6748 and 39.9069 and 45.5468
same,"cAMP accumulation response, normalized (concentration-response source data, single replicate values)",hTA1 I290Y; M = -7.522,46.4433 and 76.2991 and 50.1368 and 60.819 and 63.0177 and 60.4526 and 39.9069 and 45.5468 and 47.8027
same,"cAMP accumulation response, normalized (concentration-response source data, single replicate values)",hTA1 I290Y; M = -8,61.8329 and 86.4562 and 67.9887 and 68.1478 and 70.3464 and 73.6443 and 36.523 and 37.651 and 32.0111
same,"cAMP accumulation response, normalized (concentration-response source data, single replicate values)",hTA1 I290Y; M = -8.522,54.7537 and 78.4536 and 76.2991 and 69.98 and 71.4457 and 63.7505 and 30.8831 and 33.1391 (2×)
same,"cAMP accumulation response, normalized (concentration-response source data, single replicate values)",hTA1 I290Y; M = -9,45.2122 and 78.7614 and 61.8329 and 45.0622 and 50.1924 and 56.0554 and 15.0915 and 19.6034 and 12.8355
same,"cAMP accumulation response, normalized (concentration-response source data, single replicate values)",hTA1 I290Y; M = -9.522,19.3577 and 32.5927 and 26.1291 and 49.4595 and 39.5657 and 25.2746 and 3.812 (2×) and 8.324
same,"cAMP accumulation response, normalized (concentration-response source data, single replicate values)",hTA1 I290Y; M = -10,27.9758 and 29.5148 and 27.3602 and 7.319 and 9.884 and 17.5794 and 0.4278 and 2.684 and 7.196
same,"cAMP accumulation response, normalized (concentration-response source data, single replicate values)",hTA1 I290Y; M = -10.522,6.738
